# Reference: PubChem BioAssay AID1769 (NMMLSC, 2009)
# Biological target: glutathione S-transferase (Schistosoma japonicum GST tag binding GSH beads)
# Assay: GST–glutathione bead interaction interference profiling – biochemical, multiplex beads, flow cytometry, profiling panel (AID 1769);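 also: target is a GST and green fluorescent protein fusion captured on glutathione beads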
# Details: flow cytometry fluorescence
row,Compound,EC50
1,Cc1nnc2ccc(-c3cccc(NC(=O)c4ccco4)c3)nn12,7.84 µM
2,O=C(CNC(=O)Cc1ccccc1)N=Nc1c(O)n(Cc2ccc3c(c2)OCO3)c2ccccc12,12 µM
3,CN(/N=C/c1ccc(Br)o1)C1=NS(=O)(=O)c2ccccc21,0.184 µM
4,O=C(CSc1ccc2nnc(-c3cccs3)n2n1)N1CCCC1,1.3 µM
5,NS(=O)(=O)c1ccc(Nc2nc(-c3ccc(O)cc3O)cs2)cc1,2.29 µM
6,O=c1nc2c(O)cccn2c2c1c(=O)[nH]c1ccccc12,2.6 µM
7,CCN1/C(=C/C=C/c2oc3ccc4ccccc4c3[n+]2CC)Oc2ccc3ccccc3c21,0.223 µM
8,CCN(c1ccc(N=Cc2c(O)n(Cc3ccc(OC)cc3)c(=O)c3ccccc23)cc1)C(C)C,0.249 µM
9,NC(=O)c1cc2nc(-c3ccco3)cc(C(F)(F)F)n2n1,15.9 µM
10,Cc1nc2ncccn2c1-c1csc(Nc2ccc(O)cc2)n1,0.265 µM
11,CCOC(=O)c1cc(C(=O)OCC)c(=O)[nH]c1N1CCCC1,35.9 µM
12,CCOC(=O)c1cc2c(N)c(C(=O)c3ccc(Br)cc3)sc2[nH]c1=O,0.574 µM
13,O=C1Nc2ccc(Br)cc2C12NNc1ccccc1O2 (stereo not drawn),2.38 µM
14,COc1cc2c(cc1OC)-c1cc(NCc3ccccn3)nc(=O)n1CC2,1.96 µM
15,COc1cc2c(cc1OC)-c1cc(NC3CCCCCC3)nc(=O)n1CC2,21 µM
16,COc1cc2c(cc1OC)-c1cc(NC3CCCCCCC3)nc(=O)n1CC2,20.5 µM
17,CN1CCN(S(=O)(=O)c2cccc(C(=O)Nc3sc4c(c3C(N)=O)CCCC4)c2)CC1,19.8 µM
18,COc1cc(OC)c(-c2c3cc(O)c(=O)cc-3oc3cc(O)c(O)cc23)cc1OC,0.258 µM
19,Cc1nc(N/N=C/c2ccc(O)cc2)c2cnn(-c3ccccc3)c2n1,3.58 µM
20,O=C(NCc1cccnc1)c1cccn2c(=O)c3sccc3nc12,25.2 µM
21,O=C(COC(=O)c1ccc2c(c1[N+](=O)[O-])C(=O)c1ccccc1C2=O)NC1CC1,28 µM
22,O=c1c2c(-c3ccccc3)csc2nc2c3ccccc3c(NCCN3CCOCC3)nn12,1.84 µM

row,Compound,EC50
1,COc1cc(/C=C2/SC(=Nc3ccc(O)cc3)NC2=O)cc(OC)c1O,0.974 µM
2,Cn1cccc1/C=C1\SC(=S)N(NC(=O)c2ccccc2Cl)C1=O,51.7 µM
3,CCOc1cccc(Nc2cc3n(c(=O)n2)CCc2cc(OC)c(OC)cc2-3)c1,64.5 µM
4,COCCNC(=S)Nc1cc(OC)c(OC)cc1C#N,4.9 µM
5,COc1ccc(/C=C(/C#N)C(=O)Nc2ccc(O)cc2)cc1C(=O)O,16.4 µM
6,CC(C)(C)NC(=O)CCN(/N=C/c1ccc([N+](=O)[O-])o1)C1=NS(=O)(=O)c2ccccc21,3.39 µM
7,COc1ccc2o/c(=N/NC(=O)c3cccs3)c(C(N)=O)cc2c1,7.29 µM
8,CSc1nc2ccc(NC(=O)C3CC(=O)N(Cc4ccco4)C3)cc2s1 (stereo not drawn),46.9 µM
9,Oc1ccc2ccccc2c1/C=N/Nc1nnc(-c2ncc[nH]2)c2ccccc12,1.96 µM
10,O=C(N/N=C(\c1ccccc1)c1ccccn1)c1cccc([N+](=O)[O-])c1,38.1 µM
11,CCOc1ccccc1C(=O)Nc1cccc(-c2ccc3nncn3n2)c1,1.96 µM
12,O=C(Nc1cccc(Cl)c1)Nc1ccnc(-c2cccnc2)n1,0.499 µM
13,C=CCNc1nc(=S)[nH]c2cc(OC)c(OC)cc12,13.3 µM
14,Nc1nc2c(c(=O)[nH]1)C(c1cccc3ccccc13)C1=C(N2)c2ccccc2C1=O (stereo not drawn),2.59 µM
15,O=C(C[n+]1cccc2ccccc21)c1ccc(NC(=O)c2ccccc2)cc1,10.2 µM
16,Cc1cccc(/C=N/N(CCO)C2=NS(=O)(=O)c3ccccc32)c1,60.2 µM
17,O=C(Nc1cccc(-c2nnc(-c3ccco3)o2)c1)c1ccccc1,40.8 µM
18,O=C(O)c1cc(-c2ccc(/C=C3\NC(=O)N(c4ccc(Cl)cc4)C3=O)o2)ccc1Cl,11.8 µM
19,N#CCc1c(C#N)c(N)nc(N2CCN(C=O)CC2)c1C#N,15.7 µM
20,COc1cccc(N=Nc2c(N)[nH]n3c(=O)c4c(nc23)CCCC4)c1,1.22 µM
21,CCN(CC)c1ccc(/C=C/C(=O)c2ccc(Br)cc2)cc1,11.2 µM
22,CCN1/C(=C/c2ccc3cc(C)ccc3[n+]2C)Sc2ccc3sccc3c21,21 µM

row,Compound,EC50
1,CCC1CCCCN1S(=O)(=O)c1ccc(NC(=O)CSc2ncccc2C(=O)O)cc1 (stereo not drawn),10.7 µM
2,Cc1cc(C)cc(N2C(=O)NC(=O)/C(=C\C=C\c3ccco3)C2=O)c1,4.38 µM
3,O=S1(=O)N=C(N(CCO)/N=C/c2ccncc2)c2ccccc21,36.1 µM
4,COc1ccccc1Nc1nc(-c2c(C)nc3ncccn23)cs1,12.2 µM
5,O=c1c2ccccc2nc2c3ccccc3c(Cl)nn12,2.04 µM
6,N#Cc1ccc2ccn(CC(=O)N3CCCc4ccccc43)c2c1,2.4 µM
7,COc1cc(C(=S)NCc2ccccc2)cc(Br)c1O,53.7 µM
8,CC(C)(C)c1ccc(C(=O)CC(Sc2ccc(Cl)cc2)C(=O)O)cc1 (stereo not drawn),3.51 µM
9,Cc1ccc(Nc2nc(-c3c(C)nc4ncccn34)cs2)cc1,34.8 µM
10,CSc1nc(Cc2ccccc2)cc(=O)[nH]1,31.3 µM
11,CCN(CC)c1ccc(/C=C(\C#N)C(=O)c2ccc(Br)cc2)cc1,11.1 µM
12,Cc1ccc(-c2csc3nc4c5ccccc5c(NCCCN5CCOCC5)nn4c(=O)c23)cc1,0.346 µM
13,COc1ccc(-c2csc(C3=C(O)CN(C(C)C)C3=N)n2)cc1OC,87.3 µM
14,O=C(CSc1ccc2nnc(-c3ccncc3)n2n1)Nc1nccs1,35.1 µM
15,COc1ccccc1CNC(=O)c1c(N)n(CCCN2CCOCC2)c2nc3ccccc3nc12,4.43 µM
16,Nc1c([N+](=O)[O-])cc(-c2cnc[nH]2)cc1[N+](=O)[O-],0.391 µM
17,O=[N+]([O-])c1ccc(/C=C/C2=NN(c3ccccc3)C(c3ccco3)C2)cc1 (stereo not drawn),1.34 µM
18,O=S1(=O)N=C(N(CCO)/N=C/c2ccccc2)c2ccccc21,51.9 µM
19,CC(C)NC(=S)N=Nc1c(O)[nH]c2ccc([N+](=O)[O-])cc12,1.43 µM
20,COc1ccc(Nc2nc(-c3c(C)nc4ncccn34)cs2)cc1,8.39 µM
21,Cc1ccc2c(c1)c1nnc(SCC(=O)N3CCCc4ccccc43)nc1n2CC(=O)O,69.6 µM
22,Cc1cc2nc3c(=O)n(C4CCCCC4)c(=O)[nH]c3nc2cc1N,6.99 µM

row,Compound,EC50
1,O=c1c2ccccc2nc2c3ccccc3c(NCc3ccccn3)nn12,3.76 µM
2,COCCN1C(=O)/C(=C/c2ccc(N3CCCC3)cc2C)SC1=S,1.69 µM
3,COc1ccc(-c2cc(=O)c(C(=O)c3ccc(C)cc3)n[nH]2)cc1,4.09 µM
4,CCOC(=O)c1c2c3c(c(Cl)ccc3[nH]c1=O)C(=O)c1ccccc1-2,0.4 µM
5,Cc1ccc(NC(=O)Nc2ccnc(-c3cccnc3)n2)cc1,2.07 µM
6,CCCCNc1nc(=S)[nH]c2cc(OC)c(OC)cc12,10.9 µM
7,NC1=NC(=O)/C(=C/c2cn(CCC(=O)O)nc2-c2ccc(Cl)cc2)S1,29.2 µM
8,O=C(N/N=C/c1ccc2nccnc2c1)c1cccc([N+](=O)[O-])c1,8.59 µM
9,N#Cc1c2nc3ccccc3nc2n2cc(NC(=O)c3ccc(F)cc3)ccc12,0.95 µM
10,O=C(OCC1O[C@@H](OC(=O)c2cc(O)c(O)c(O)c2)[C@@H](OC(=O)c2cc(O)c(O)c(O)c2)[C@@H](OC(=O)c2cc(O)c(O)c(O)c2)[C@@H]1OC(=O)c1cc(O)c(O)c(O)c1)c1cc(O)c(O)c(O)c1 (stereo partly drawn),0.951 µM
11,O=c1c2ccccc2nc2ccc(NCc3cccs3)nn12,6.79 µM
12,Cc1ccc(/C=N/N(C)C2=NS(=O)(=O)c3ccccc32)o1,7.42 µM
13,CC(=O)Oc1ccc2c(c1)Oc1cc(OC(C)=O)ccc1C21OC(=O)c2ccccc21,1.51 µM
14,Nc1c(S(=O)(=O)c2cccs2)c2nc3ccccc3nc2n1/N=C/c1cccc(O)c1,0.355 µM
15,Cc1cc2[nH]c3c(c[n+](C)c4ccccc34)c2cc1C,9.45 µM
16,O=C(Nc1cc(S(=O)(=O)Nc2ccccc2Cl)ccc1O)c1sc2cc(Cl)ccc2c1Cl,3.66 µM
17,NC(=S)N=Nc1c(O)[nH]c2c(Br)cc(Br)cc12,69.1 µM
18,COc1ccc(C(=O)N/N=c2\oc3ccccc3cc2C(N)=O)cc1,4.62 µM
19,COc1ccc(-c2csc(NC(=S)NC(=O)c3cccs3)n2)cc1OC,1.33 µM
20,Cc1cc2nc3c(=O)[nH]c(=O)[nH]c3nc2c([N+](=O)[O-])c1N,1.18 µM
21,COc1ccc(/C=N/NC(=O)c2ccncc2)cc1Cn1nc([N+](=O)[O-])c(Br)c1C,9.22 µM
22,COC(=O)c1cc(NC(=O)c2cccc(Cl)c2)c(=O)oc1/C=C/Nc1cc(C)cc(C)c1,0.567 µM

row,Compound,EC50
1,COC(=O)COc1ccc(/C=N/NC(=O)c2ccc(N(Cc3ccccc3)S(C)(=O)=O)cc2)cc1,4.09 µM
2,O=C(CN1CCN(c2ccc(O)cc2)CC1)Nc1cc(S(=O)(=O)N2CCCCC2)ccc1Cl,19.1 µM
3,O=C(CSc1ccc2nnc(-c3cccc(F)c3)n2n1)N1CCCc2ccccc21,0.16 µM
4,COc1ccc(/C=N/n2c(N)c(S(=O)(=O)c3cccs3)c3nc4ccccc4nc32)cc1OC,0.612 µM
5,Cc1cccc(S(=O)(=O)c2c(N)n(/N=C/c3cccnc3)c3nc4ccccc4nc23)c1,3.42 µM
6,COc1ccc(/C=N/NC(=O)Nc2cccc3nsnc23)cc1OC,0.682 µM
7,Nc1c(C(=O)C2CC2)sc2nc(-c3cccs3)cc(C(F)(F)F)c12,19.3 µM
8,CN(/N=C/c1cccnc1)C1=NS(=O)(=O)c2ccccc21,5.05 µM
9,COc1cc2[nH]c(=S)nc(NC3CCCCCC3)c2cc1OC,1.32 µM
10,O=C1/C(=C/c2ccc(N3CCOCC3)o2)SC(=Nc2ccccc2)N1CCc1c[nH]c2ccccc12,0.0697 µM
11,COc1ccc2c(C)nc(N/C(N)=N/S(=O)(=O)c3ccc(C)cc3)nc2c1,7.51 µM
12,Cc1cc(/C=c2\sc3nc4ccccc4n3c2=O)c(C)n1-c1ccc(C(=O)O)cc1,47.5 µM
13,COc1ccc(S(=O)(=O)N2CCCCC2)cc1NC(=O)c1ccc([N+](=O)[O-])o1,28.6 µM
14,COc1cc(/C=N/Nc2nc(C)nc3c2cnn3-c2ccccc2)ccc1O,0.638 µM
15,Cc1c(CCC(=O)O)c(=O)oc2cc3occ(-c4ccc(F)cc4)c3cc12,70.5 µM
16,COc1cc2[nH]c(=S)nc(NCCc3ccc(C)cc3)c2cc1OC,0.334 µM
17,Cc1cc(-c2nnc3n2N=C(c2ccc(-c4ccccc4)cc2)CS3)n[nH]1,6.8 µM
18,COc1ccc(S(=O)(=O)N2CCOCC2)cc1NC(=O)COc1cccnc1[N+](=O)[O-],64 µM
19,COc1ccc(C(=O)Nc2nc3ccccc3[nH]2)cc1S(=O)(=O)N1CCOCC1,32.7 µM
20,Oc1ccc(/C=N/NC(=S)N/N=C/c2ccc(O)cc2)cc1,13.4 µM
